The structures appear in SMILES notation.

The nature of the data set: Henry solubility constant Hcp at 310 K (mol/(m3 Pa)). The conditions noted are these: reference: Mirvish et al. (1976).
Turning to `CC1CN(N=O)CC(C)N1N=O` (stereo not given) [2,6-dimethyldinitrosopiperazine], the “Henry solubility constant Hcp at 310 K” value is more than 190.

Turning to `CC1CN(N=O)CC(C)O1` (stereo not given) [2,6-dimethylnitrosomorpholine], the “Henry solubility constant Hcp at 310 K” value was 35.

As for `O=NN1CCOCC1` [4-nitrosomorpholine], the “Henry solubility constant Hcp at 310 K” value worked out at 390.

Regarding `CC(C)N(N=O)C(C)C` [N-(1-methylethyl)-N-nitroso-2-propanamine], the “Henry solubility constant Hcp at 310 K” value is 1.2.

`CN(Cc1ccccc1)N=O` [N-methyl-N-nitrosobenzenemethanamine]: the “Henry solubility constant Hcp at 310 K” value stood at 0.79.

Take `CCOC(=O)N(C)N=O` [N-nitroso-N-methylurethane]: the “Henry solubility constant Hcp at 310 K” value is 0.39.

As for `CCCCN(CCCC)N=O` [N-nitrosodi-N-butylamine], the “Henry solubility constant Hcp at 310 K” value was determined as 0.72.

In the case of `CCN(CC)N=O` [N-nitrosodiethylamine], the “Henry solubility constant Hcp at 310 K” value was determined as 1.4.

Regarding `CN(C)N=O` [N-nitrosodimethylamine], the “Henry solubility constant Hcp at 310 K” value came to 5.2.

For `CCCN(CCC)N=O` [N-nitrosodipropylamine], the “Henry solubility constant Hcp at 310 K” value worked out at 1.8.

For the compound `O=NN1CCCCC1` [N-nitrosopiperidine], the “Henry solubility constant Hcp at 310 K” value was determined as 11.

`O=NN1CCN(N=O)CC1` [dinitrosopiperazine]: the “Henry solubility constant Hcp at 310 K” value is more than 190.

In the case of `CCCCN(CC)N=O` [ethylbutylnitrosamine], the “Henry solubility constant Hcp at 310 K” value was found to be 0.99.

Consider `CCN(C#N)N=O` [ethylnitrosocyanamide], for which the “Henry solubility constant Hcp at 310 K” value came out at 0.26.

In the case of `CCCCN(C)N=O` [methylbutylnitrosamine], the “Henry solubility constant Hcp at 310 K” value was found to be 1.7.

Regarding `CC(=O)N(C)N=O` [methylnitrosoacetamide], the “Henry solubility constant Hcp at 310 K” value came to 0.086.

On to `CN(N=O)C(N)=O` [methylnitrosourea], for which the “Henry solubility constant Hcp at 310 K” value was more than 190.

Take `CCCCCN(C)N=O` [methylpentylnitrosamine]: the “Henry solubility constant Hcp at 310 K” value was determined as 2.

With `O=NN1CCC1` [nitrosoazetidine], the “Henry solubility constant Hcp at 310 K” value is more than 190.

For `O=NN1CCCCCC1` [nitrosohexamethyleneimine], the “Henry solubility constant Hcp at 310 K” value was 43.

Source of the values: Sander's compilation of Henry's law constants (doi:10.1093/jnci/56.6.1125).
